Experiment [1] deals with MEK, ERK1/2, p90RSK, p38, SAPK/JNK phosphorylation in astrocytes. Nature of the experiment: Western blotting of phosphorylated MAP kinase pathway proteins in astrocyte lysates. It is filed as cell-based, mouse. As for the experimental part:
SDS-PAGE and Western blotting. Astrocytes were treated for the indicated time with media or 100 ng/ml RANTES, eotaxin, or other materials as indicated. Cells (3×10^5 in Examples 1-3, or 2×10^4 in later Examples) were resuspended in 100 μl buffer (50 mM HEPES, pH 7.5, 150 mM NaCl, 2 mM EDTA, 2 mM EGTA, 1% Triton X-100, 50 mM Sodium fluoride, 5 mM Sodium pyrophosphate, 50 mM Sodium β-glycerophosphate, 1 mM Sodium Ortho-vanadate, 1 mM DTT, 1 mM PMSF, 10 μg/ml Leupeptin, and 10 μg/ml Aprotinin). Protein concentration of the whole cell extract was determined by BCA protein assay kit (Pierce, Rockford, Ill.). Samples (10 μg) were loaded and separated on a 10% SDS-polyacrylamide gel. After transfer to Hybond ECL nitrocellulose membrane (Amersham Pharmacia Biotech Inc, Piscataway, N.J.) or Zeta-probe blotting membranes (Bio-Rad, Richmond Calif.) blots were blocked overnight with 5% BSA at 4° C., and probed with the antibody indicated. Antibody against unphosphorylated or phosphorylated erk (Cell Signaling, Beverly, Mass.) was used at 1 μg/ml. Appropriate anti-immunoglobulin reagents were used to develop the blots by enhanced chemiluminescence (Amersham Pharmacia Biotech Inc, Piscataway, N.J.).
Little is known about the signaling mechanisms involved in astrocyte respones to chemokines. To examine components of the RANTES signal transduction pathway, phosphorylation of the MAP kinase kinase (MEK) and mitogen activated protein (MAP) kinases was examined. To minimize basal kinase activity, astrocytes were starved of serum for at least 3 h before treatment with chemokine. Whole cell lysates were separated by SDS-PAGE and examined by Western blot. Antibodies that specifically react with phosphorylated MEK or phosphorylated extracellular signal-related kinase (ERK) were used to detect the active kinases.
A general note: In western blotting, separated proteins are transferred to a membrane and probed.

For experiment [2], the system named is intracellular cAMP in astrocytes. The experiment can be described thus: Intracellular cAMP in astrocytes (EIA). It is filed as cell-based, mouse. The method, then:
FIG. 8 is a set of bar graphs showing that RANTES reduced intracellular cAMP accumulation in astrocytes. Panel A. Astrocytes were treated with the indicated doses of RANTES or TCA4 for 5 min. Intracellular cAMP was detected as described in Materials and Methods. Values represent the mean±S.E.M of triplicate experiments. Panel B. Kinetics of intracellular cAMP levels. Astrocytes were treated with 100 ng/ml RANTES for indicated times. Panel C. RANTES inhibited forskolin-induced intracellular cAMP accumulation. Astrocytes were pretreated with 1 μM forskolin for 1 h then stimulated with the indicated amount of RANTES for 5 min. Intracellular cAMP was determined by EIA. Values are presented as relative cAMP level and represent the mean±S.E.M. of triplicate experiments.
To further elucidate the RANTES-mediated signaling pathway in astrocytes, intracellular cAMP levels were evaluated following chemokine stimulation. Primary mouse astrocytes were incubated with the indicated dose of RANTES or the negative control chemokine, TCA4 for 5 min and monitored for cAMP levels. RANTES (100 ng/ml) decreased intracellular cAMP levels by 68% in a dose dependent fashion (FIG. 8A).

For experiment [3], the system named is CXCR4, CX3CR1, CCR1, CCR5 transcripts in astrocytes. Nature of the experiment: RPA for chemokine receptor transcripts in astrocytes. It is filed as cell-based, mouse. As to conditions: average, pooled results of 3-4 experiments. The method, then: RNA isolation and RNase protection assay (RPA). RNA was prepared as in Luo, Y., et al. 1999. J Immunol 163:3985. RNase protection assays (RPA) for chemokine message were conducted with multi-probe templates according to the manufacture's protocol (RiboQuant assay kit, BD-PharMingen, San Diego, Calif.). Gels were scanned and radioactive bands quantitated using a phosphoimager (Molecular Dynamics, Sunnyvale, Calif.). Levels of uniformly expressed housekeeping genes large ribosomal subunit protein 32-3A (L32) or glyceraldehyde-3-phosphate dehydrogenase (GAPDH), were used for normalization. The value of each chemokine receptor band divided by the value of the indicated housekeeping gene band in the same sample yielded the relative intensity. Normalized receptor expression represents the ratio of the relative intensity following treatment with chemokine versus the relative intensity of medium alone.
Treatment with the RANTES-related chemokines RANTES or eotaxin, or with TNF-α also found to down-regulate expression of CX3CR1 transcripts. In addition, CXCR4 mRNA levels were decreased, while the levels of CCR1 transcripts were elevated. In contrast, little or no regulation of CCR5 was noted. The pooled results of 3-4 experiments indicate eotaxin caused an average 60% decrease in CXCR4 (P less than 0.01) and a 70% decrease in CX3CR1 mRNA (P less than 0.02) (FIG. 8.B). The effects of RANTES stimulation were similar with an average 70 and 90% reduction in CXCR4 and CX3CR1 transcripts, respectively (P less than 0.01).

In experiment [4] the test system is cultured mouse astrocytes. Nature of the experiment: RT-PCR for KC message in astrocytes. It is filed as cell-based.
Experiment [5] deals with GFAP in astrocytes. The experiment can be described thus: Immunofluorescence of GFAP in astrocytes. It is filed as cell-based, mouse. As to conditions: 100 ng/ml RANTES for 1-5 days. The method, then:
Astrocytes associated with Alzheimer's Disease, MS and EAE lesions frequently display increased levels of the intracellular marker GFAP, an indicator of astrogliosis (Xu et al., 1999. Glia 25:390-403). To determine if chemokines could modulate GFAP expression astrocytes were treated with 100 ng/ml RANTES for 1-5 days and then examined for the intracellular marker GFAP by conventional immunofluorescence. Evidence for modulation of GFAP was not observed.

Where only a bound is given, the exact number is not on record here.

Turning to RANTES, in experiment [1] (100 ng/ml RANTES), the “duration of phosphorylation of MEK, ERK1 and ERK2” value is listed as “over 2 h”; the “duration of phosphorylation of RSK” value is on record as “over 2 h”; the “phosphorylation state of Raf-1 Ser 259” value is reported as “dephosphorylation”; the “time of appearance of phosphorylation of MEK, ERK1 and ERK2” value is reported as no more than 5 min. Besides, in experiment [1] (100 ng/ml RANTES), the “time of peak phosphorylation of MEK, ERK1 and ERK2” value lay in the range of 20 to 60 min; the “time of peak phosphorylation of RSK” value is recorded as 60 min. Moreover, the “time of appearance of phosphorylation of RSK” value in experiment [1] (100 ng/ml RANTES, Ser381, Thr360/Ser364, Thr574) was no more than 5 min. Further, the “phosphorylation of p38 or SAPK/JNK” value in experiment [1] (100 ng/ml, 20 min, 5 to 120 min) is “failed to phosphorylate”. In addition, the “time within which intracellular cAMP was dramatically decreased” value in experiment [2] (100 ng/ml RANTES) is on record as no more than 1 min. Further, the “decrease of intracellular cAMP levels” value in experiment [2] (100 ng/ml, 5 min) is given as 68%. Moreover, the “effect on forskolin-induced cAMP accumulation” value in experiment [2] (1 μM forskolin 1 h, then RANTES 5 min) was “inhibited forskolin-induced cAMP accumulation in a dose dependent manner”. In addition, in experiment [3], the “decrease in CX3CR1 mRNA” value was found to be 90% and the “decrease in CXCR4 mRNA” value was found to be 70%. In experiment [4], the “synthesis of KC message” value is on record as “induce synthesis of KC message”. In addition, the “modulation of GFAP” value in experiment [5] is “not observed”.

(Values after patent publication US20030082135A1, “Pathway of RANTES-mediated chemokine synthesis in astrocytes and methods of use therefor” (priority 2001, published 2003).)
